Literature values as cited in US12124166B2, “Negative resist formulation for producing undercut pattern profiles” (Merck Patent GmbH, priority 2017, dated 2024).

Conditions: for pKa in water: stated in the Materials descriptions of commercial quenchers; for pKa (Quencher's pKa values): Table 9

Row | Structure (SMILES) | pKa in water | pKa (Quencher's pKa values)
1 | CCCCCCCCCCCCCCCCCC1=NCCN1CCO [Addi-MC, 2-(2-heptadecyl-4,5-dihydro-1H-imidazol-1-yl)ethan-1-ol] | ~10.08 | –
2 | OCCn1ccnc1 [IA, 1-(2-hydroxyethylimidazole)] | ~6.78 | 6.78
3 | CCN(C(C)C)C(C)C [N,N diisopropylethylamine] | – | 10.98
4 | CCCN(C)CCC [N-Methyldipropylamine] | – | 9.91
5 | COCCOCCN(CCOCCOC)CCOCCOC [MNNE, 2-(2-methoxyethoxy)-N,N-bis[2-(2-methoxyethoxy)ethyl]-Ethanamine] | ~6.92 | 6.92
6 | c1ccc(N(c2ccccc2)c2ccccc2)cc1 [DPA, triphenylamine] | ~−3.04 | −3.04
7 | CCc1ncc[nH]1 [2EI, 2-Ethylimidazole] | ~8.22 | 8.22
8 | CC(C)c1cccc(C(C)C)c1N [DIPA, 2,6-diisopropylaniline] | ~4.25 | 4.25
